From patent US10095829B2, “Computer implemented methods of treating lung cancer” (WORLDWIDE INNOVATIVE NETWORK, priority 2009, dated 2018) come the findings set out here.

Assay [1] has as its system non-small cell lung carcinoma (NSCLC), cT4, N0, M1. Briefly: Clinical course under treatment, patient of Example 1. The assay is classed as in vivo, human. The conditions noted are these: Example 1 patient, new subclavious metastasis.
Excerpt: The patient was a person. They suffered of a non-small cell lung carcinoma (NSCLC), cT4, N0, M1. […] For HKI 272, the patient has been included in a clinical trial.
Lapatinib, an anti-HER1 and -HER2 inhibitor, was justified, even if no mutation was detected in EGFR, because EGF overexpressed 15 folds in the patient and it was needed to continue HKI 272.
For assay [2], the system named is primary bronchial adenocarcinoma with bilateral pulmonary metastases and asymptomatic cerebral metastases. Put plainly: Clinical course under treatment, patient of Example 3. The format is in vivo, human. The conditions noted are these: Example 3 patient. An excerpt: A patient was diagnosed in May 2007 for a primary bronchial adenocarcinoma with bilateral pulmonary metastases and asymptomatic cerebral metastases. A surgical treatment has been carried out in November 2008 and two therapeutic lines have been used, namely thirteen cycles of cisplatin-gemcitabin for the first line and Alimta for the second one.
However, based on this score table, avastin associated with a score of 384 has been selected.

Assay [3] deals with bronchial adenocarcinoma T4 with bones and pleural metastases. The following applies: Example 2 patient; for Clinical outcome: bronchial adenocarcinoma.

Take `CCOc1cc2ncc(C#N)c(Nc3ccc(OCc4ccccn4)c(Cl)c3)c2cc1NC(=O)/C=C/CN(C)C` [HKI 272]: the “Duration of treatment until disease progression was observed” value in assay [1] stood at 37 months. `Nc1nc2[nH]cc(CCc3ccc(C(=O)N[C@@H](CCC(=O)O)C(=O)O)cc3)c2c(=O)[nH]1` [PEMETREXED]: in assay [2], the Clinical outcome is listed as “only associated with a disease progression”. In the case of `C#Cc1cccc(Nc2ncnc3cc(OCCOC)c(OCCOC)cc23)c1` [Tarceva], in assay [3], the Clinical outcome is “inefficient and led to a rapid progression”. Consider `CCC1=C[C@@H]2CN(C1)Cc1c([nH]c3ccccc13)[C@@](C(=O)OC)(c1cc3c(cc1OC)N(C)[C@H]1[C@@](O)(C(=O)OC)[C@H](OC(C)=O)[C@]4(CC)C=CCN5CC[C@]31[C@@H]54)C2` [VINORELBINE], for which the Clinical outcome in assay [3] is “the disease was stable, then progressed”. The Survival conferred entry in assay [3] (treatment since January 2010) is “three months survival”.

With “BEVACIZUMAB: VEGFA gene is regarded as major target gene for bevacizumab”, the Clinical outcome in assay [2] is on record as “major response has been observed after two treatment cycles”.
